For 3 compounds, AC50, EC50 and IC50 results are on record in ChEMBL document CHEMBL1201862, “PubChem BioAssay data set” (2004).

One may read the AC50 as the concentration giving half of the maximal activity seen. By EC50 is commonly meant the midpoint of the concentration-response curve. A word on the IC50: it is the concentration that inhibits the measured activity by half.

Active and inactive are the calls of the source.

In assay [1] the target is T1, Microphthalmia-associated transcription factor (Homo sapiens, UniProt O75030).
T1 sequence (O75030 whole entry): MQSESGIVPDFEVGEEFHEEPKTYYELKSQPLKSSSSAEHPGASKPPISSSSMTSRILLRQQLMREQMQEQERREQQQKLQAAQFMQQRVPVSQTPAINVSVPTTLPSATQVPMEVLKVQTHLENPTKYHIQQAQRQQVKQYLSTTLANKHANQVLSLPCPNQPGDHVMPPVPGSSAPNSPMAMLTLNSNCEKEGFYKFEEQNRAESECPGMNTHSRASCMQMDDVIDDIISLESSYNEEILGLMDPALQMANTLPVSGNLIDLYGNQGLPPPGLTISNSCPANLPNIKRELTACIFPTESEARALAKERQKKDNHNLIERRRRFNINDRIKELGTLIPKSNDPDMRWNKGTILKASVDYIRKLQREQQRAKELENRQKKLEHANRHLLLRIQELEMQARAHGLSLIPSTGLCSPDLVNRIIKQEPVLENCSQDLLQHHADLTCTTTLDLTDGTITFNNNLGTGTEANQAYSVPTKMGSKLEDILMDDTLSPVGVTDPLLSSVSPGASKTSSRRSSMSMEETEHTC
Briefly: reducers of TRPM1 reporter luminescence, concentration series – cell-based, SK-MEL-5, cherry-picked, set 3, MITF inhibitor project, dose response (AID 493073).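 Note: SK-MEL-5 melanoma cells with luciferase driven by the MITF target TRPM1 promoter.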 Type of assay: functional.

For assay [2], the system named is A-375. Briefly: proliferation inhibition in MITF-low A375 cells – cell-based, cherry-pick samples, set 2, counter-screen for MITF modulator project, dose response (AID 540335). Format: functional. Conditions: Homo sapiens.
The test system of assay [3] is A-375. Briefly: MITF: Counter assay: A375 proliferation Measured in Cell-Based System Using Plate Reader - 2084-03_Inhibitor_Dose_DryPowder_Activity. [Related pubchem assays (depositor defined):AID488944]. Format: functional. Conditions: Homo sapiens.
For assay [4], the target named is T2, Replicative DNA helicase DnaB (Mycobacterium tuberculosis, UniProt P9WMR3).
T2 sequence (P9WMR3 whole entry): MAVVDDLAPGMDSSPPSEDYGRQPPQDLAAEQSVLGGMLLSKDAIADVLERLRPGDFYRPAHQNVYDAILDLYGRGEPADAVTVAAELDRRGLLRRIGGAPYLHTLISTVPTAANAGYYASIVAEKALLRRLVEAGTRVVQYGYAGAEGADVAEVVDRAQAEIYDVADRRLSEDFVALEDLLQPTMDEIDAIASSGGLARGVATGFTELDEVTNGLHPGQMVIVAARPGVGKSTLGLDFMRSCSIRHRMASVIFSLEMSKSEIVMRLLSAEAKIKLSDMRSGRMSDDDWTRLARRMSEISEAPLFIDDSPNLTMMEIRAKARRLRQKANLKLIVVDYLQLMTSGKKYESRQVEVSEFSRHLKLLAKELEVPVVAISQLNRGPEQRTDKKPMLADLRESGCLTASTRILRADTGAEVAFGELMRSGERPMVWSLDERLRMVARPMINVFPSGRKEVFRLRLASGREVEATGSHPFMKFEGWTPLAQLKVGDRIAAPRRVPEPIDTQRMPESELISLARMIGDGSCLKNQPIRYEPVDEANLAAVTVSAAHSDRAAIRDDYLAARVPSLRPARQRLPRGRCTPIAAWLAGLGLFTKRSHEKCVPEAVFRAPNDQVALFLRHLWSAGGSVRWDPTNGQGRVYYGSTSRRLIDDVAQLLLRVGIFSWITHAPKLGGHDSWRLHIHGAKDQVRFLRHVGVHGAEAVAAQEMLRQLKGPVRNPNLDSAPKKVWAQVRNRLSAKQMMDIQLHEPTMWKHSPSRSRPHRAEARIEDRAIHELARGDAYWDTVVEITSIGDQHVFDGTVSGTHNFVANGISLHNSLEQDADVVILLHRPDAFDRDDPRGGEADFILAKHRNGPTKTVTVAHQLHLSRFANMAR
Briefly: DnaB intein splicing inhibitors, dose response, biochemical, cell-free fluorescence (AID 449749). Type of assay: functional.

A further assay has as its target T3, Protein RecA (Mycobacterium tuberculosis, UniProt P9WHJ3).
T3 sequence (P9WHJ3 whole entry): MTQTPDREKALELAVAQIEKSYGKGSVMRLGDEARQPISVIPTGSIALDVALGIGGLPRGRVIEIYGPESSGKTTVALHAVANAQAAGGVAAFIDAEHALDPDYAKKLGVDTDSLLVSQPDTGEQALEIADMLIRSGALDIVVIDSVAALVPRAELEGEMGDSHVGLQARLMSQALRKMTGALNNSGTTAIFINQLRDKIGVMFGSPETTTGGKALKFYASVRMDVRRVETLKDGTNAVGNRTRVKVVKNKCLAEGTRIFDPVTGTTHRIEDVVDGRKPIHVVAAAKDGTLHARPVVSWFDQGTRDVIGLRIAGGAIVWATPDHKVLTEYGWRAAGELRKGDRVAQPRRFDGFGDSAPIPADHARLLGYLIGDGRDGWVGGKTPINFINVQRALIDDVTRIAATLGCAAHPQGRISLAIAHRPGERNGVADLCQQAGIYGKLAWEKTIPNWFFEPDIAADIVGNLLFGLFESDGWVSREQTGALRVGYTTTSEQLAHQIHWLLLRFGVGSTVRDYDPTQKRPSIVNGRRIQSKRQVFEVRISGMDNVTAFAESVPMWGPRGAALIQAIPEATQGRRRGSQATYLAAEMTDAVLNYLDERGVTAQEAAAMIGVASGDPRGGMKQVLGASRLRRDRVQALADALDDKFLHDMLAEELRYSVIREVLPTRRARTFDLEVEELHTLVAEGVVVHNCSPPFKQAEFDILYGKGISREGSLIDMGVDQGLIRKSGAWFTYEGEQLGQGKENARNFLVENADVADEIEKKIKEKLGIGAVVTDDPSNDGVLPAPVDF
Briefly: Fluorescence Cell-Free Homogeneous Dose Retest to Identify Inhibitors of RecA-Intein Splicing Activity. [Related pubchem assays (depositor defined):AID2097, AID2223, AID489010, AID492950]. Type of assay: functional.

Assay [5] relates to HEK293. Briefly: membrane integrity loss in HEK cells – cell-based, fluorescence, cytotoxicity control for IDE activator project, dose response (AID 588440).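 Note: cytotoxicity by LDH release measuring loss of membrane integrity.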 Type of assay: functional. The note with it: Homo sapiens.
The subject of assay [6] is HEK293. Briefly: optical interference in Abeta FP readout, dose response, artefact control for IDE activator project, biochemical, fluorescence polarization (AID 588442). Type of assay: functional, cell-based. The note with it: Homo sapiens. A general note: Polarisation of emitted light reports the rotation of a fluorescent probe.
For another assay, the system named is HeLa. Briefly: viability loss in HeLa cells – cell-based, 24 h, cherry-picked samples, cytotoxicity control, dose response (AID 504726).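 Note: potency for cytotoxicity as loss of luminescence signal.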 Type of assay: functional. The note with it: Homo sapiens.
Assay [7] deals with T4, Insulin-degrading enzyme (Homo sapiens, UniProt P14735).
T4 sequence (P14735 whole entry): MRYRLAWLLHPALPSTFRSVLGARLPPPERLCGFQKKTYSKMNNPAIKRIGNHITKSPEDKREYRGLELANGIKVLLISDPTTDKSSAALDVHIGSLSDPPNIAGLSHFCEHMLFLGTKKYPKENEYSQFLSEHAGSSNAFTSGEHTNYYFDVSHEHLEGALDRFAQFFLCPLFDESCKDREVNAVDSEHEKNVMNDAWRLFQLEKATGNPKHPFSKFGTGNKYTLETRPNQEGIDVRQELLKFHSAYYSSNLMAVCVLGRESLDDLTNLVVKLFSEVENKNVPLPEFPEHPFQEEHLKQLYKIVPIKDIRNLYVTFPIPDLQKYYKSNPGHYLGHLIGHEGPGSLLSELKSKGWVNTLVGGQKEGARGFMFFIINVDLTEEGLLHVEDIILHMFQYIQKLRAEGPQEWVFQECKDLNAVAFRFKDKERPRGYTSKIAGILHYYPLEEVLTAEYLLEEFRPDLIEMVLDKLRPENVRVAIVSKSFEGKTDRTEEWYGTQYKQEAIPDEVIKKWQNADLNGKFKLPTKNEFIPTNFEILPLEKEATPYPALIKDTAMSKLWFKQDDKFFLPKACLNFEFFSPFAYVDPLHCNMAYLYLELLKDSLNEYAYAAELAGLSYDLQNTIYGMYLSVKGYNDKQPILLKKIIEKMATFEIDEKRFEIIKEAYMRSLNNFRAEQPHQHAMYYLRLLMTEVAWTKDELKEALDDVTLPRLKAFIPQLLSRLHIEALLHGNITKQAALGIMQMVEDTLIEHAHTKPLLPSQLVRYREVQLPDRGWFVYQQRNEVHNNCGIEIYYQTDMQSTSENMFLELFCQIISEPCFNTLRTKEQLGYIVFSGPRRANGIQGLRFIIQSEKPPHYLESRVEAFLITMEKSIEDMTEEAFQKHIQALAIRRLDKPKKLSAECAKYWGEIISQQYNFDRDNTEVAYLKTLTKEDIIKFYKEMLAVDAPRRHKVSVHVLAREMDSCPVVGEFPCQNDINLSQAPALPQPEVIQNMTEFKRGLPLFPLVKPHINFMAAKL
Briefly: cellular IDE activation of Abeta substrate cleavage – fluorescence polarization, HEK cells, dose response (AID 588439). Format: functional, cell-based.

The target of assay [8] is UDP-galactopyranose mutase (Mycobacterium tuberculosis, UniProt P9WIQ1). Briefly: Inhibitors of Mycobacterium tuberculosis UDP-galactopyranose mutase (UGM) enzyme Measured in Biochemical System Using Plate Reader - 2105-02_Inhibitor_Dose_CherryPick_Activity. [Related pubchem assays (depositor defined):AID504439].
The target in assay [9] is T4, Insulin-degrading enzyme. Briefly: recombinant IDE activation, cell-free – biochemical, fluorescence polarization, counter-screen for IDE activator project, dose response (AID 588681).

UDP-galactopyranose mutase, sequence (P9WIQ1 whole entry): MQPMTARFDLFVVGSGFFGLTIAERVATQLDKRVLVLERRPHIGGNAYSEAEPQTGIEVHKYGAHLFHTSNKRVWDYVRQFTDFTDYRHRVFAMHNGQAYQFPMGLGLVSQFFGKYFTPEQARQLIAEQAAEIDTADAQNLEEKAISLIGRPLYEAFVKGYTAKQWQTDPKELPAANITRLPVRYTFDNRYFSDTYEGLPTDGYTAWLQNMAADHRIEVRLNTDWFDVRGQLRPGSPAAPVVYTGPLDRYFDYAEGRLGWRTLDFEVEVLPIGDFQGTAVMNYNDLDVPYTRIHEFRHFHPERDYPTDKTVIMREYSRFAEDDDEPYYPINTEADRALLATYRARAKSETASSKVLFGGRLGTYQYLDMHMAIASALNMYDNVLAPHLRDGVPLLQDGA

As to `Cc1c(C#N)c(NC(=O)CCl)n(Cc2cccs2)c1C`, the AC50 in assay [1] is 7.07 µM (active); in the assay with A-375 [2] it was > 35 µM (active); with A-375 [3], > 35 µM (active); in assay [4], 48 µM (active). Also, the EC50 at Protein RecA is 9.25 µM (active).
As to `O=C(Nc1cc2c(cc1Cl)OCCO2)c1ccco1`, the AC50 with A-375 [2] and in the assay with A-375 [3] was > 11 µM (active) each time.
Consider `COc1ccc(N=Nc2nc3ccc(Br)cc3n2C)cc1`, for which, in the assay on HEK293 [5], the IC50 is > 89.2 µM (inactive). Also, the EC50 in the assay on HEK293 [6], at Insulin-degrading enzyme [7] and at Insulin-degrading enzyme [9] was > 54.7 µM (inactive) throughout. The values for the half-maximal activity concentration (AC50) (with HeLa; in assay [8]) were 98.3 µM (active) and 145 µM (active), respectively.
